From US20200022967A1, “Use of 2-carboxamide cycloamino urea derivatives in the treatment of EGFR dependent diseases or diseases that have acquired resistance to agents that target EGFR family members” (Novartis AG, priority 2010, published 2020)

Key:
BT-474 tumors = test: BT474 orthotopic breast cancer xenograft, antitumor activity (Example 1); format: in vivo, mice
Description: Experiments were performed in female HsdNpa:Athymic Nude-nu mice approximately 8-12 weeks of age at treatment start. All animals were housed under Optimized Hygienic conditions in Makrolon type III cages (max. 10 animals per cage) with free access to food and water.
BT-474 cells, which are human breast ductal carcinoma cells and ErbB2 amplified with a PIK3CA mutation K111N, were grown in DMEM culture medium containing 4.5 g/l glucose supplemented with 10% heat-inactivated FCS, 2 mM L-glutamine, 1 mM sodium pyruvate and incubated at 37° C. in a 5% CO2 humidified atmosphere. Cell culture reagents were purchased from BioConcept (Allschwil, Switzerland).
BT-474 tumors were established in vivo by injection 3×10^6 cells in 30 μl HBSS (Sigma # H8264) containing 1 mg/ml Matrigel (BD #34234) orthotopically into the 3rd mammary gland on the right side of the animals. The efficacy experiments started when the tumors reached an average size of approximately 130 mm^3 (day 14-16 post cell injection). The PK/PD experiment was performed when the tumors reached a size of 150-250 m m^3 (day 22 after cell injection). On the day of cell injection, a 0.025 17β Estradiol pellent has been implanted subcutaneously on the left flank into each experimental animal under Forene® inhalation narcosis.
The Compound was fully dissolved in NMP. Then, PEG300 and liquified Solutol were added (in sequence with vortexing after addition of each reagent). Water was added immediately prior to administration to the animals. Compound A or vehicle was administered orally at a volume of 10 ml/kg.
(§1) Tumor volumes were measured with calipers and determined according to the formula: length×diameter^2×π/6. […] Regressions (%) were calculated according to the formula ((mean tumor volume at end of treatment-mean tumor volume at start of treatment)/mean tumor volume at start of treatment)×100. Body weights and tumor volumes were recorded twice a week.
(§2) Where applicable, data is presented as mean±SEM. For all tests, the level of significance was set at p<0.05. For tumor volumes, comparisons between treatment groups and vehicle control group were done using one-way ANOVA followed by Dunnett's test. The level of significance of body weight change within a group between the start and the end of the treatment period was determined using a paired t-test. Comparisons of delta body weights between treatment and vehicle control groups were performed by a one-way ANOVA followed by a post hoc Dunnett's test.
In the first experiment, Compound A was orally administered daily to BT-474 orthotopic xenografts, tumor-bearing nude mice at a dose of 50 mg/kg. […] Compound A administered orally at 50 mg/kg once daily produces a mean tumor change of tumor volume of −29.7±15.6 mm^3 (p<0.01, ANOVA and post-hoc Dunnett's) as compared to vehicle (mean tumor change of 315.1±16.4 mm^3), with a 23.0% regression in the first experiment.
In a second experiment, Compound A was orally administered daily to BT-474 orthotopic xenografts, tumor-bearing nude mice at doses of 12.5, 25 and 50 mg/kg. […] (See FIG. 1). Compound A administered orally at 12.5, 25 and 50 mg/kg once daily produces a mean change of tumor volume of 171.8±33.0 mm^3 (p<0.01, ANOVA and post-hoc Dunnett's), 95.5±26.5 mm^3 (p<0.01, ANOVA and post-hoc Dunnett's), and 20.8±15.9 mm^3 (p<0.01, ANOVA and post-hoc Dunnett's) respectively as compared to vehicle (mean change of tumor volume of 557.7±79.0 mm^3) in the second experiment. (See FIG. 3)

[1] = Body weight in BT474 combination study (Example 3); format: in vivo, mice; conditions: Compound A 50 mg/kg p.o. daily, single agent; significant
Description: as §1, §2

NCI-N87 tumors = test: NCI-N87 xenograft in CB17 SCID mice, Compound A alone and with lapatinib (Example 6); format: in vivo; conditions: for Median TTE: control 26.2
Description: The NCI-N87 cells were harvested with 5× trypsin. Eight days after tumor implantation (on Day 1 of the study), mice with an individual tumor volume of 88-196 mm^3 were sorted into 10 groups of ten mice with a group mean tumor volume of 143-149 mm^3.
Where applicable, data is presented as mean±SEM. Each animal was euthanized when its neoplasm reached the endpoint volume (1000 mm^3), or on the last day of the study (Day 59). Time to endpoint (TTE) is calculated by the equation: TTE=(log10(endpoint volume)−b)/m, where TTE is expressed in days, endpoint volume is in mm3, b is the intercept and m is the slope of the line obtained by linear regression of a log-transformed tumor growth data set. Treatment efficacy was determined from Tumor Growth Delay (TGD), which was defined as the increase in the median time to endpoint (TTE) for a treatment group compared to the control group (TGD=T−C), expressed in days, or as a percentage of the median TTE of the control group (% TGD=((T−C)/C)×100), wherein T=median TTE for a treatment group and C=median TTE for the designated control group.
Statistical and graphical analyses was performed with Prism 3.03 (GraphPad) for Windows. For all tests, the level of significance of differences was done using ANOVA, with Bartlett's test; and a post-hoc Dunnett's multiple comparison test compared the mean change for each drub-treated group to the mean for Group 1. Survival was analyzed by the Kaplan-Meier method. The logrank test was employed to analyze the significance of the difference between the overall survival experiences of two groups, based on time to endpoint (TTE) values. The two-tailed statistical analyses were conducted at P=0.05. Prism summarizes test results as not significant (ns) at P>0.05, significant (symbolized by “*”) at 0.01<P<0.05, very significant (symbolized by “**”) at 0.001<P<0.01, and extremely significant (symbolized by “***”) at P<0.001.

[2] = Group 2 (9 animals): Compound A 12.5 mg/kg p.o. once daily
[3] = Group 2: Compound A 12.5 mg/kg p.o. once daily
[4] = Group 3 (9 animals): Compound A 25 mg/kg p.o. once daily
[5] = Group 3: Compound A 25 mg/kg p.o. once daily

In the case of Cc1nc(NC(=O)N2CCC[C@H]2C(N)=O)sc1-c1ccnc(C(C)(C)C(F)(F)F)c1 [Compound A, (S)-Pyrrolidine-1,2-dicarboxylic acid 2-amide 1-({4-methyl-5-[2-(2,2,2-trifluoro-1,1-dimethyl-ethyl)-pyridin-4-yl]-thiazol-2-yl}-amide)], the “antitumor effect as compared to vehicle” value (BT-474 tumors; 12.5, 25 and 50 mg/kg p.o. once daily, p<0.05 ANOVA) is reported as “statistically significant antitumor effect”, the regression (BT-474 tumors; first experiment, 50 mg/kg p.o. once daily) is reported as 23.0% and the “mean change of tumor volume” value (BT-474 tumors; first experiment, 50 mg/kg p.o. once daily, vehicle 315.1±16.4) is reported as −29.7±15.6 mm^3. The “mean change of tumor volume” value (BT-474 tumors; second experiment, 12.5 mg/kg p.o. once daily, vehicle 557.7±79.0) was 171.8±33.0 mm^3, the “mean change of tumor volume” value (BT-474 tumors; second experiment, 25 mg/kg p.o. once daily, vehicle 557.7±79.0) was 95.5±26.5 mm^3 and the “mean change of tumor volume” value (BT-474 tumors; second experiment, 50 mg/kg p.o. once daily, vehicle 557.7±79.0) was 20.8±15.9 mm^3. For the same compound, the body weight loss [1] was “about 12%”, the “Regressions CR” value (NCI-N87 tumors; [2]) was “CR: 0” and the “Regressions PR” value (NCI-N87 tumors; [2]) was “PR: 0,”. For the same compound, the “Median TTE” value (NCI-N87 tumors; Group 2 (9 animals): Compound A 12.5 mg/kg p.o. once daily, vs G1 ns) was 30.4 days, the “% TGD” value (NCI-N87 tumors; [3]) was 16% and the T-C (NCI-N87 tumors; [3]) was 4.2 days. For the same compound, the “Regressions CR” value (NCI-N87 tumors; [4]) was “CR: 0”, the “Regressions PR” value (NCI-N87 tumors; [4]) was “PR: 0,” and the “Median TTE” value (NCI-N87 tumors; Group 3 (9 animals): Compound A 25 mg/kg p.o. once daily, vs G1 *) was 43.5 days. For the same compound, the “% TGD” value (NCI-N87 tumors; [5]) was 16% and the T-C (NCI-N87 tumors; [5]) was 17.3 days.
